Data from patent publication US9593305B2, “Differentiation of pluripotent stem cells” (Janssen Biotech, Inc., priority 2008, dated 2017).

Test system: H1 human embryonic stem cells
Assay: Screen of CDK, GSK3 and TRK inhibitors with or without GDF-8, SOX17 and cell number (Example 20, Table 17)
Assay type: cell-based
Conditions: for Cell Number, Average Total Cell Number / Sox17 Expression, Average Total Intensity / Cell Number, % of positive control / Sox17 Expression, % of positive control: Plate 1; for Cell Number, % of positive control / Sox17 Expression, % of positive control: positive control = Activin A/Wnt3a
Experimental: Briefly, clusters of H1 human embryonic stem cells were grown on reduced growth factor Matrigel™ (Invitrogen; Cat #356231) coated tissue culture plastic. Cells were passaged using collagenase (Invitrogen; Cat #17104-019) treatment and gentle scraping, washed to remove residual enzyme, and plated with even dispersal at a ratio of 1:1 (surface area) on reduced growth factor […]™ (BD Biosciences; Cat #356231)-coated 96-well black plates (Packard ViewPlates; PerkinElmer; Cat #6005182) using volumes of 100 μl/well. Cells were allowed to attach and then recover log phase growth over a 1 to 3 day time period, feeding daily with MEF conditioned medium supplemented with 8 ng/ml bFGF (R&D Systems; Cat #233-FB). Plates were maintained at 37° C., 5% CO2 in a humidified box throughout the duration of assay.
Screening was conducted using the compounds described in Table 16. […] Compounds were made available as 5 mM stocks in 96-well plate format, solubilized in 100% DMSO (Sigma; Cat #D2650) and stored at −80° C. The library compounds were further diluted to an intermediate concentration of 0.2 mM in 50 mM HEPES (Invitrogen; Cat #15630-080), 20% DMSO and stored at 4° C. Test conditions were performed in triplicate, feeding on alternating days over a four-day assay period. Assay was initiated by aspirating culture medium from each well followed by three washes in PBS (Invitrogen; Cat #14190) to remove residual growth factors. On the first day of assay, test volumes of 200 μl per well were added to each well using DMEM:F12 base medium (Invitrogen; Cat #11330-032) supplemented with 0.5% FCS (HyClone; Cat #SH30070.03) and 100 ng/ml GDF-8 (R&D Systems, Cat #788-G8) plus 2.5 μM compound. A parallel set of test samples were treated in an identical manner but omitting GDF-8 from the medium. On the third day of assay, test volumes of 100 μper well were added to each well using DMEM:F12 base medium supplemented with 2% FCS plus 100 ng/ml GDF-8 (R&D Systems, Cat #788-G8). […] Positive control samples contained the same base medium supplemented with FCS and 100 ng/ml recombinant human activin A (PeproTech; Cat #120-14) throughout the four day assay along with Wnt3a (20 ng/ml) addition on days 1 and 2. Negative control samples contained DMEM:F12 base medium supplemented with FCS.
At the conclusion of four-days of culture, assay plates were washed twice with PBS (Invitrogen; Cat #14190), fixed with 4% paraformaldehyde (Alexis Biochemical; Cat #ALX-350-011) at room temperature for 20 minutes, then washed three times with PBS and permeabilized with 0.5% Triton X-100 (Sigma; Cat #T8760-2) for 20 minutes at room temperature. Cells were washed again three times with PBS and blocked with 4% chicken serum (Invitrogen; Cat #16110082) in PBS for 30 minutes at room temperature. Primary antibody (goat anti-human SOX17; R&D Systems; Cat #AF1924) was diluted 1:100 in 4% chicken serum and added to each well for one hour at room temperature. Alexa Fluor 488 conjugated secondary antibody (chicken anti-goat IgG; Molecular Probes; Cat #AZ1467) was diluted 1:200 in PBS and added to each sample well after washing three times with PBS. To counterstain nuclei, 4 μg/ml Hoechst 33342 (Invitrogen; Cat #H3570) was added for ten minutes at room temperature. Plates were washed once with PBS and left in 100 μl/well PBS for imaging.
Imaging was performed using an IN Cell Analyzer 1000 (GE Healthcare) utilizing the 51008bs dichroic for cells stained with Hoechst 33342 and Alexa Fluor 488. Exposure times were optimized from positive control wells and from untreated negative control wells stained with secondary antibody alone. Images from 15 fields per well were acquired to compensate for any cell loss during the bioassay and subsequent staining procedures. Measurements for total cell number and total SOX17 intensity were obtained from each well using IN Cell Developer Toolbox 1.7 (GE Healthcare) software. […]

[1] = growth factor treatment alone, no compound
[2] = compound in combination with GDF8

Compound	Cell Number, Average Total Cell Number [1]	Sox17 Expression, Average Total Intensity [1]	Cell Number, % of positive control [1]	Sox17 Expression, % of positive control [1]	SOX17 expression in the presence of GDF-8 (2.5 μM compound with 100 ng/ml GDF-8, four days)	Cell Number, Average Total Cell Number [2]	Sox17 Expression, Average Total Intensity [2]	Cell Number, % of positive control [2]	Sox17 Expression, % of positive control [2]
GDF-8: growth factor GDF-8, also known as myostatin, member of the TGF-β family	2856	2.2E+07	19.7 % of positive control	9.4 % of positive control					
O=C1CCN2CCN(CC2)Cc2cc(Cl)cc(c2)Nc2ncnc(n2)-c2cncc(c2)CCCN1 [Compound 34, 5-Chloro-1,8,10,12,16,22,26,32-octaazapentacyclo[24.2.2.1˜3.7˜0.1˜9,13˜0.1˜14.18˜]tritriaconta-3(33), 4,6,9(32), 10,12,14(31), 15,17-nonaen-23-one]					induced significant SOX17 expression	13926	2.6E+08	96.2 % of positive control	111.8 % of positive control
